Biological target: T1, human adenosine A2A receptor (Homo sapiens, UniProt P29274)
T1 construct: expressed in transfected cells; host or cells: CHO cells, Semliki Forest virus expression system; washed membrane preparation
Assay: [3H]-SCH-58261 binding assay at the human adenosine A2A receptor
Conditions: [3H]-SCH-58261 (1 nM), membranes of CHO cells recombinantly expressing the human A2A receptor; Ki by Cheng-Prussoff; read-out: hA2ApKi (converted)
Experimental: Human Adenosine A2A Receptor
The human adenosine A2A receptor was recombinantly expressed in chinese hamster ovary (CHO) cells using the semliki forest virus expression system. Cells were harvested, washed twice by centrifugation, homogenised and again washed by centrifugation. The final washed membrane pellet was suspended in a Tris (50 mM) buffer containing 120 mM NaCl, […] and 10 mM MgCl2 (pH 7.4) (buffer A). The [^3H]-SCH-58261 (Dionisotti et al., 1997, Br J Pharmacol 121, 353; 1 nM) binding assay was carried out in 96-well plates in the presence of 2.5 μg of membrane protein, 0.5 mg of Ysi-poly-1-lysine SPA beads io and 0.1U adenosine deaminase in a final volume of 200 μl of buffer A. Non-specific binding was defined using xanthine amine congener (XAC; 2 μM). Compounds were tested at 10 concentrations from 10 μM-0.3 nM. All assays were conducted in duplicate and repeated at least two times. Assay plates were incubated for lhour at room temperature before centrifugation and then bound ligand determined using a Packard Topcount scintillation counter. IC50 values were calculated using a non-linear curve fitting program and Ki values calculated using the Cheng-Prussoff equation.

T1 sequence (P29274 whole entry): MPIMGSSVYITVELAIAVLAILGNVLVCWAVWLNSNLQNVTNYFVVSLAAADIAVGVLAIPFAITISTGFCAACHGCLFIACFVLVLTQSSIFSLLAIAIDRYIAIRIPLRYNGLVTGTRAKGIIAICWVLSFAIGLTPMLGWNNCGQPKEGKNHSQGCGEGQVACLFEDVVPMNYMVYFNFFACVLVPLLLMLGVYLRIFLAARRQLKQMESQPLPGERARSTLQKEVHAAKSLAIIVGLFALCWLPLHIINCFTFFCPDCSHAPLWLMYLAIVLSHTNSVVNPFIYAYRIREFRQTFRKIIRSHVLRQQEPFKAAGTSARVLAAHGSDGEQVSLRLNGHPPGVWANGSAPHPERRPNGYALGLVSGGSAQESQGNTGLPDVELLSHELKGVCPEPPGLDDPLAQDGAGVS

Ki | SMILES
25.1 nM | Nc1cc(-c2cccc(F)c2)cc2nc(C3=CCCO3)nn12 [2-(4,5-Dihydro-furan-2-yl)-7-(3-fluoro-phenyl)-[1,2,4]triazolo[1,5-a]pyridin-5-ylamine]
31.6 nM | Cc1cccc(-c2cc(N)n3nc(C4=CCCO4)nc3c2)c1 [2-(4,5-Dihydro-furan-2-yl)-7-m-tolyl-[1,2,4]triazolo[1,5-a]pyridin-5-ylamine]
12.6 nM | COc1ccc(-c2cc(N)n3nc(-c4ccco4)nc3c2)cn1 [2-Furan-2-yl-7-(6-methoxy-pyridin-3-yl)-[1,2,4]triazolo[1,5-a]pyridin-5-ylamine]
10 nM | Cc1cccc(-c2cc(N)n3nc(-c4ccco4)nc3c2)c1 [2-Furan-2-yl-7-m-tolyl-[1,2,4]triazolo[1,5-a]pyridin-5-ylamine]
7.94 nM | CCc1cc(-c2cc(N)n3nc(-c4ccccn4)nc3c2)ccn1 [7-(2-Ethyl-pyridin-4-yl)-2-pyridin-2-yl-[1,2,4]triazolo[1,5-a]pyridin-5-ylamine]
15.8 nM | Nc1cc(-c2ccnc(F)c2)cc2nc(-c3ccco3)nn12 [7-(2-Fluoro-pyridin-4-yl)-2-furan-2-yl-[1,2,4]triazolo[1,5-a]pyridin-5-ylamine]
31.6 nM | Cc1cc(-c2cc(N)n3nc(-c4ccccn4)nc3c2)ccn1 [7-(2-Methyl-pyridin-4-yl)-2-pyridin-2-yl-[1,2,4]triazolo[1,5-a]pyridin-5-ylamine]
7.94 nM | Nc1cc(-c2ccc(Cl)c(Cl)c2)cc2nc(C3=CCCO3)nn12 [7-(3,4-Dichloro-phenyl)-2-(4,5-dihydro-furan-2-yl)-[1,2,4]triazolo[1,5-a]pyridin-5-ylamine]
25.1 nM | COc1ccc(-c2cc(N)n3nc(-c4ccco4)nc3c2)cc1OC [7-(3,4-Dimethoxy-phenyl)-2-furan-2-yl-[1,2,4]triazolo[1,5-a]pyridin-5-ylamine]

Test system: not given
Assay: not given
Conditions: not given

melting point | SMILES
257 to 260 °C | Nc1cc(-c2cc(Cl)cc(Cl)c2)cc2nc(-c3ccco3)nn12 [Example 5, 7-(3,5-Dichloro-phenyl)-2-furan-2-yl-[1,2,4]triazolo[1,5-a]pyridin-5-ylamine]
100 to 101 °C | Cc1cc(-c2cc(N)n3nc(-c4ccco4)nc3c2)ccn1 [Example 7, 2-Furan-2-yl-7-(2-methyl-pyridin-4-yl)-[1,2,4]triazolo[1,5-a]pyridin-5-ylamine]
184 to 186 °C | CCc1cc(-c2cc(N)n3nc(-c4ccco4)nc3c2)ccn1 [Example 8, 7-(2-Ethyl-pyridin-4-yl)-2-furan-2-yl-[1,2,4]triazolo[1,5-a]pyridin-5-ylamine]
275 to 277 °C | Cc1cc(-c2nc3cc(-c4ccncc4)cc(N)n3n2)oc1C [Example 16, 2-(4,5-Dimethyl-furan-2-yl)-7-pyridin-4-yl-[1,2,4]triazolo[1,5-a]pyridin-5-ylamine]
207 to 210 °C | Nc1cc(-c2ccncc2)cc2nc(-c3ccccc3)nn12 [Example 22, 2-Phenyl-7-pyridin-4-yl-[1,2,4]triazolo[1,5-a]pyridin-5-ylamine]
278 to 280 °C | Nc1cc(-c2ccccn2)cc2nc(-c3ccccc3)nn12 [Example 23, 2-Phenyl-7-pyridin-2-yl-[1,2,4]triazolo[1,5-a]pyridin-5-ylamine]
201 to 203 °C | Nc1cc(-c2cccnc2)cc2nc(-c3ccccc3)nn12 [Example 24, 2-Phenyl-7-pyridin-3-yl-[1,2,4]triazolo[1,5-a]pyridin-5-ylamine]
214 to 216 °C | Nc1cc(-c2ccccc2)cc2nc(-c3ccccc3)nn12 [Example 25, 2,7-Diphenyl-[1,2,4]triazolo[1,5-a]pyridin-5-ylamine]

Source: patent US6355653B1, “Amino-triazolopyridine derivatives” (Hoffmann-La Roche Inc., priority 1999, dated 2002)
